Measurements published in ChEMBL document CHEMBL1201862, “PubChem BioAssay data set” (2004).
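Interpolation was linear, between the two tested concentrations surrounding the appropriate level; five concentrations were tested over 48 hours in 96-well plates. GI50: concentration for 50% inhibition of growth.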 Active and inactive are the calls of the source. Rule as the data show it: active = GI50 up to about 1.1 µM and inactive = higher.

Key:
Test in all cases: NCI anticancer screen, dose series, 48 h
SNB-19 = system: SNB-19
KM12 = system: KM12
A549 = system: A549
SK-MEL-28 = system: SK-MEL-28
COLO 205 = system: COLO 205
TK-10 = system: TK-10
NCI-H226 = system: NCI-H226
CAKI-1 = system: CAKI-1
IGROV-1 = system: IGROV-1
A498 = system: A498
U-251 = system: U-251
NCI-H23 = system: NCI-H23
K562 = system: K562
OVCAR-5 = system: OVCAR-5
HOP-62 = system: HOP-62
Malme-3M = system: Malme-3M
UACC-62 = system: UACC-62
NCI-H460 = system: NCI-H460
RXF 393 = system: RXF 393
SF-539 = system: SF-539

CCOC(=O)N1CCN(Cc2cc(=O)n3ccc(C)cc3n2)CC1
GI50 (SNB-19): > 100 µM (inactive) | GI50 (KM12): > 100 µM (inactive) | GI50 (A549): > 100 µM (inactive) | GI50 (SK-MEL-28): > 100 µM (inactive) | GI50 (COLO 205): > 100 µM (inactive) | GI50 (TK-10): > 100 µM (inactive) | GI50 (NCI-H226): > 100 µM (inactive) | GI50 (CAKI-1): > 100 µM (inactive) | GI50 (IGROV-1): > 100 µM (inactive) | GI50 (A498): > 100 µM (inactive) | GI50 (U-251): > 100 µM (inactive) | GI50 (NCI-H23): > 100 µM (inactive) | GI50 (K562): > 100 µM (inactive) | GI50 (OVCAR-5): > 100 µM (inactive) | GI50 (HOP-62): > 100 µM (inactive) | GI50 (Malme-3M): > 100 µM (inactive) | GI50 (UACC-62): > 100 µM (inactive) | GI50 (NCI-H460): > 100 µM (inactive) | GI50 (RXF 393): > 100 µM (inactive) | GI50 (SF-539): > 100 µM (inactive)

N#Cc1cc([N+](=O)[O-])ccc1NC(=O)C(=O)Nc1n[nH]c(N)n1
GI50 (SNB-19): > 100 µM (inactive) | GI50 (KM12): > 100 µM (inactive) | GI50 (A549): > 100 µM (inactive) | GI50 (SK-MEL-28): > 100 µM (inactive) | GI50 (COLO 205): > 100 µM (inactive) | GI50 (TK-10): > 100 µM (inactive) | GI50 (NCI-H226): 86.3 µM (inactive) | GI50 (CAKI-1): > 100 µM (inactive) | GI50 (IGROV-1): > 100 µM (inactive) | GI50 (A498): > 100 µM (inactive) | GI50 (U-251): > 100 µM (inactive) | GI50 (NCI-H23): > 100 µM (inactive) | GI50 (K562): > 100 µM (inactive) | GI50 (OVCAR-5): > 100 µM (inactive) | GI50 (HOP-62): > 100 µM (inactive) | GI50 (Malme-3M): > 100 µM (inactive) | GI50 (UACC-62): > 100 µM (inactive) | GI50 (NCI-H460): > 100 µM (inactive) | GI50 (RXF 393): > 100 µM (inactive) | GI50 (SF-539): > 100 µM (inactive)

COc1ccc(C)cc(O)c1=O
GI50 (SNB-19): 95.1 µM (inactive) | GI50 (KM12): > 100 µM (inactive) | GI50 (A549): > 100 µM (inactive) | GI50 (SK-MEL-28): 57.4 µM (inactive) | GI50 (COLO 205): 30.8 µM (inactive) | GI50 (TK-10): > 100 µM (inactive) | GI50 (NCI-H226): > 100 µM (inactive) | GI50 (CAKI-1): 28.2 µM (inactive) | GI50 (IGROV-1): 39.9 µM (inactive) | GI50 (A498): 38.4 µM (inactive) | GI50 (U-251): 42.8 µM (inactive) | GI50 (NCI-H23): 40.1 µM (inactive) | GI50 (K562): 45.4 µM (inactive) | GI50 (OVCAR-5): 68.4 µM (inactive) | GI50 (HOP-62): 54.6 µM (inactive) | GI50 (Malme-3M): 57.1 µM (inactive) | GI50 (UACC-62): 22.3 µM (inactive) | GI50 (NCI-H460): 17.7 µM (inactive) | GI50 (RXF 393): 39.7 µM (inactive) | GI50 (SF-539): 42.5 µM (inactive)

CCOC(=O)C(C(N)=O)C1=Nc2cc([N+](=O)[O-])ccc2N/C1=C\C(=O)c1ccccc1 (stereo not given)
GI50 (SNB-19): 18.5 µM (inactive) | GI50 (KM12): 12.1 µM (inactive) | GI50 (A549): 17.3 µM (inactive) | GI50 (SK-MEL-28): 25.6 µM (inactive) | GI50 (COLO 205): 17.9 µM (inactive) | GI50 (TK-10): 11 µM (inactive) | GI50 (NCI-H226): 31.3 µM (inactive) | GI50 (CAKI-1): 22.9 µM (inactive) | GI50 (IGROV-1): 11.2 µM (inactive) | GI50 (A498): 16.6 µM (inactive) | GI50 (U-251): 11.3 µM (inactive) | GI50 (NCI-H23): 11.5 µM (inactive) | GI50 (K562): 3.82 µM (inactive) | GI50 (OVCAR-5): 24 µM (inactive) | GI50 (HOP-62): 10.9 µM (inactive) | GI50 (Malme-3M): 19.9 µM (inactive) | GI50 (UACC-62): 17.3 µM (inactive) | GI50 (NCI-H460): 13.4 µM (inactive) | GI50 (RXF 393): 17.7 µM (inactive) | GI50 (SF-539): 15.1 µM (inactive)

COc1cc([C@@H]2c3cc4c(cc3[C@@H](NCc3ccccc3F)C3COC(=O)[C@@H]32)OCO4)cc(OC)c1O (stereo not given in full)
GI50 (SNB-19): 5.36 µM (inactive) | GI50 (KM12): 3.99 µM (inactive) | GI50 (A549): 0.933 µM (active) | GI50 (SK-MEL-28): 12.2 µM (inactive) | GI50 (COLO 205): 17.7 µM (inactive) | GI50 (TK-10): 27.6 µM (inactive) | GI50 (NCI-H226): 2.06 µM (inactive) | GI50 (CAKI-1): 1.91 µM (inactive) | GI50 (IGROV-1): 1.11 µM (active) | GI50 (A498): 5 µM (inactive) | GI50 (U-251): 1.89 µM (inactive) | GI50 (NCI-H23): 2.29 µM (inactive) | GI50 (K562): 1.47 µM (inactive) | GI50 (OVCAR-5): 24.8 µM (inactive) | GI50 (HOP-62): 1.93 µM (inactive) | GI50 (Malme-3M): 5.94 µM (inactive) | GI50 (UACC-62): 0.463 µM (active) | GI50 (NCI-H460): 0.56 µM (active) | GI50 (RXF 393): 5.18 µM (inactive) | GI50 (SF-539): 1.47 µM (inactive)

C[C@H](CCC(=O)NCCS(=O)(=O)O)[C@H]1CC[C@H]2[C@@H]3[C@H](O)C[C@@H]4C[C@H](O)CC[C@]4(C)[C@H]3CC[C@]12C
GI50 (SNB-19): > 100 µM (inactive) | GI50 (KM12): > 100 µM (inactive) | GI50 (A549): > 100 µM (inactive) | GI50 (SK-MEL-28): > 100 µM (inactive) | GI50 (COLO 205): > 100 µM (inactive) | GI50 (TK-10): > 100 µM (inactive) | GI50 (NCI-H226): > 100 µM (inactive) | GI50 (CAKI-1): > 100 µM (inactive) | GI50 (IGROV-1): > 100 µM (inactive) | GI50 (A498): > 100 µM (inactive) | GI50 (U-251): > 100 µM (inactive) | GI50 (NCI-H23): > 100 µM (inactive) | GI50 (K562): > 100 µM (inactive) | GI50 (OVCAR-5): > 100 µM (inactive) | GI50 (HOP-62): > 100 µM (inactive) | GI50 (Malme-3M): > 100 µM (inactive) | GI50 (UACC-62): > 100 µM (inactive) | GI50 (NCI-H460): > 100 µM (inactive) | GI50 (RXF 393): > 100 µM (inactive) | GI50 (SF-539): > 100 µM (inactive)
